Test results: patent US4168318A, “1-(2,4,6-Trihydroxyphenyl)-propanedione-(1,2)-compounds and therapeutic compositions” (priority 1974, dated 1979)
Where two headings read alike, the source gives them in different places. Marks after values point to notes of the source that are not given here.

Tests used:
[1] = system: liver damage induced by phalloidine; test: Anti-phalloidine effect: death rate and survival time after phalloidine poisoning (Experiment B); assay type: in vivo, mice (male and female, homebred strain, stock Garvens); conditions: 140.5 mg/kg i.v. as N-methyl glucamine salt 1 hour before phalloidine 3 mg/kg i.p.
Procedure: The liver-protective effect of the compounds B and C according to the invention in the form of their water-soluble N-methyl glucamine salts was tested on mice by antagonizing liver damage induced by phalloidine with treatment using the compounds of the invention.
140.5 mg of Compound B/25 ml 0.9% NaCl+4% PVP/kg i.v.
40.5 mg MG/25 ml 0.9% NaCl+4% PVP/[…] i.v.
Phalloidine, predissolved in 3 ml methanol to 20 ml 0.9%
Experimental animals were male and female mice of a homebred strain, stock Garvens, having a weight of about 20-25 g. All animals were housed under identical conditions and were given "Ssniff" standard food and drinking water ad libitum.
Compound B as its N-methyl glucamine salt was injected in a dosage of 140.5 mg/kg i.v. 1 hour prior to administration of phalloidine at 3 mg/kg i.p. (to induce damage to the liver). The control animals received 40.5 mg/kg N-methyl glucamine salt i.v. The death rate and survival time after the phalloidine poisoning were registered. The observation time was 7 days.

mice = test: Acute toxicity / acute tolerance after i.v. injection in mice (Experiment A); assay type: in vivo, mice (male and female SPF-mice, stock NMRI); conditions: for death rate % / death rate/No.: 14 days observation; for death rate/day, 1st: 1st day; for DL50, converted to the free compound: given as N-methyl glucamine salt, expressed as Compound; for death rate/day, 3rd: 3rd day; for acute symptoms of non-tolerance: mice; for death rate/day, 2nd: 2nd day
Procedure: (§1) The acute toxicity of the compounds of the invention was tested on mice, and since the substances are substantially nontoxic after oral administration, the acute tolerance of the two Compounds B and C in their methyl glucamine salts form was determined after i.v. injection. This form of preparation was also chosen for the pharmacological measurement of the antiphalloidine effect.
(§2) Experimental animals were male and female SPF-mice, stock NMRI, of the firm of Voss, Tuttlingen, Germany, having a weight of about 25-30 g. each. All animals were housed under identical conditions and were given "Sniff" standard food and drinking water ad libitum. The mice were administered the dosages once in 20 ml 0.9% NaCl+4% PVP/kg i.v. at an injection rate of approximately 1 ml/min. The observation time was 14 days.
(§3) 1. Compound B as N-methyl glucamine salt.
(§4) 2. Compound C as N-methyl glucamine salt.
(§5) 3. Polyvinyl pyrrolidone (PVP) of Fluka, mol. wt.~10,000 stock solution: 4% PVP dissolved in 0.9% NaCl.

[2] = system: phalloidine-induced damage to the liver; test: Anti-phalloidine effect: serum enzymes GOT and GPT (Experiment C); assay type: in vivo, mice (female SPF-mice, stock NMRI); conditions: 140.5 mg/kg i.v. as N-methyl glucamine salt 1 hour before phalloidine 1.5 mg/kg i.p.
Procedure: As an additional pharmacological measurement, the antiphalloidine effect of Compound C as its N-methyl glucamine salt i.v. was subsequently determined.
1.5 mg phalloidine, predissolved in 3 ml methanol ad 20 ml
Experimental animals were female SPF-mice, stock NMRI, of the firm of Voss, Tuttlingen, having a weight of about 25 g. All animals were housed under identical conditions and were given "Ssniff" standard food and drinking water ad libitum. Compound C as its N-methyl glucamine salt was injected in a dosage of 140.5 mg/kg i.v. 1 hour before the phalloidine poisoning (1.5 mg/kg i.p.). The control animals received 40.5 mg/kg N-methyl glucamine salt i.v. after a period of 24 hours subsequent to the damage to the liver, blood was taken from the mice from the retroorbital venae plexus for the determination of the serum enzymes GOT and GPT.

[3] = Acute toxicity / acute tolerance after i.v. injection in mice (Experiment A); assay type: in vivo, mice (male and female SPF-mice, stock NMRI); conditions: mouse, in vivo, iv; for mortality at 336 h: N-methyl glucamine salt, 14 days observation, read-out: death rate %; for LD50 at 336 h: i.v., given as N-methyl glucamine salt, expressed as Compound, read-out: DL50, converted to the free compound
Procedure: as §1, §2, §3, §4, §5

[4] = female mice, 570 mg/kg i.v., N-methyl glucamine salt
[5] = female mice, 680 mg/kg i.v., N-methyl glucamine salt
[6] = female mice, 800 mg/kg i.v., N-methyl glucamine salt
[7] = female mice, 960 mg/kg i.v., N-methyl glucamine salt
[8] = male mice, 425 mg/kg i.v., N-methyl glucamine salt
[9] = male mice, 600 mg/kg i.v., N-methyl glucamine salt
[10] = male mice, 714.1 mg/kg i.v., N-methyl glucamine salt
[11] = male mice, 850 mg/kg i.v., N-methyl glucamine salt
[12] = male mice, 1200 mg/kg i.v., N-methyl glucamine salt
[13] = male mice, 1700 mg/kg i.v., N-methyl glucamine salt
[14] = female mice, 424.3 mg/kg i.v., N-methyl glucamine salt
[15] = female mice, 504.6 mg/kg i.v., N-methyl glucamine salt
[16] = female mice, 600 mg/kg i.v., N-methyl glucamine salt
[17] = male mice, 424.3 mg/kg i.v., N-methyl glucamine salt
[18] = male mice, 504.6 mg/kg i.v., N-methyl glucamine salt

COc1cc(C2Oc3cc(CC(=O)C(=O)c4c(O)cc(O)cc4O)ccc3OC2CO)ccc1O (stereo not drawn) [Compound B]
phalloidine poisoning (DL80) measured by death rate and survival time [1]: prevented
death rate ([1]; male and female mice, 7 days, control 80%): 0%
death rate % (mice; [4]): 0%
death rate/No. (mice; [4]): 0/10
death rate/day, 1st (mice; [5]): 1
death rate % (mice; [5]): 10%
death rate/No. (mice; [5]): 1/10
survival time span (mice; female mice, 680 mg/kg i.v., N-methyl glucamine salt, ' = minutes, ^h = hours): ~23^h minutes-hours
death rate/day, 1st (mice; [6]): 3
death rate % (mice; [6]): 30%
death rate/No. (mice; [6]): 3/10
death rate/day, 1st (mice; [7]): 7
death rate % (mice; [7]): 70%
death rate/No. (mice; [7]): 7/10
DL50, converted to the free compound (mice; female mice, i.v., 20160 min): 604.98 mg/kg
death rate % (mice; [8]): 0%
death rate/No. (mice; [8]): 0/5
death rate % (mice; [9]): 0%
death rate/No. (mice; [9]): 0/10
death rate/day, 1st (mice; [10]): 1
death rate/day, 3rd (mice; [10]): 2
death rate % (mice; [10]): 30%
death rate/No. (mice; [10]): 3/10
death rate/day, 1st (mice; [11]): 8
death rate % (mice; [11]): 80%
death rate/No. (mice; [11]): 8/10
death rate/day, 1st (mice; [12]): 5
death rate % (mice; [12]): 100%
death rate/No. (mice; [12]): 5/5
death rate/day, 1st (mice; [13]): 3
death rate % (mice; [13]): 100%
death rate/No. (mice; [13]): 3/3
DL50 (mice; male mice, i.v., dose as N-methyl glucamine salt, 20160 min): 820 ± 34 mg/kg
DL50, converted to the free compound (mice; male mice, i.v., 20160 min): 583.63 mg/kg
acute symptoms of non-tolerance (mice; i.v., N-methyl glucamine salt): accelerated respiration, laying on their side, and clonic tonic cramps before death actually occurred

COc1cc(C2Oc3c(O)cc(CC(=O)C(=O)c4c(O)cc(O)cc4O)cc3C2CO)ccc1O (stereo not drawn) [Compound C]
damage to the liver, measured by the increase of serum enzymes GOT and GPT [2]: entirely prevented
GPT in the serum ([2]; female mice, 24 hours after, control 667.4±324.6): 13.4±0.9 mU/ml
GOT in the serum ([2]; female mice, 24 hours after, control 1489.2±904.7): 38.7±2.9 mU/ml
mortality at 336 h ([3]; 300 mg/kg, female mice, 300 mg/kg i.v.): 0%
mortality at 336 h ([3]; 300 mg/kg, male mice, 300 mg/kg i.v.): 0%
mortality at 336 h ([3]; 424.3 mg/kg, female mice, 424.3 mg/kg i.v.): 80%
mortality at 336 h ([3]; 424.3 mg/kg, male mice, 424.3 mg/kg i.v.): 40%
mortality at 336 h ([3]; 504.6 mg/kg, female mice, 504.6 mg/kg i.v.): 100%
mortality at 336 h ([3]; 504.6 mg/kg, male mice, 504.6 mg/kg i.v.): 100%
mortality at 336 h ([3]; 600 mg/kg, female mice, 600 mg/kg i.v.): 100%
mortality at 336 h ([3]; 600 mg/kg, male mice, 600 mg/kg i.v.): 100%
LD50 at 336 h ([3]; female mice): 274 mg/kg
LD50 at 336 h ([3]; male mice): 295 mg/kg
death rate/No. (mice; female mice, 300 mg/kg i.v., N-methyl glucamine salt): 0/10
death rate/day, 2nd (mice; [14]): 1
death rate/day, 3rd (mice; [14]): 5
death rate/day, 4th (mice; female mice, 424.3 mg/kg i.v., N-methyl glucamine salt, 4th day): 2
death rate/No. (mice; [14]): 8/10
death rate/day, 1st (mice; [15]): 5
death rate/No. (mice; [15]): 5/5
death rate/day, 1st (mice; [16]): 5
death rate/No. (mice; [16]): 5/5
death rate/No. (mice; male mice, 300 mg/kg i.v., N-methyl glucamine salt): 0/10
death rate/day, 2nd (mice; [17]): 3
death rate/day, 3rd (mice; [17]): 1
death rate/No. (mice; [17]): 4/10
death rate/day, 1st (mice; [18]): 5
death rate/No. (mice; [18]): 5/5
death rate/day, 1st (mice; [9]): 5
death rate/No. (mice; [9]): 5/5
acute symptoms of non-tolerance (mice; i.v., N-methyl glucamine salt): accelerated respiration, laying on their side, and clonic tonic cramps before death actually occurred
